Results published in ChEMBL document CHEMBL1138605, “Identification of 3-substituted N-benzhydryl-nortropane analogs as nociceptin receptor ligands for the management of cough and anxiety” (Bioorg Med Chem Lett, 2009).
The source made the active and inactive calls. No cut-off for these calls is given here.

Assays:
Cavia porcellus [1] = assay: Antitussive activity in guinea pig GPPV model assessed as reduction of capsaicin-induced coughing at 0.3 mg/kg, po after 2 hrs administered 15 mins before capsaicin challenge; type: functional
Nociceptin receptor [2] = molecular target: T1, Nociceptin receptor (Homo sapiens, UniProt P41146); assay: Displacement of [125I][Tyr14]nociceptin from human cloned ORL1 receptor expressed in CHO cells; type: cell-based
[3] = molecular target: T2, Nuclear receptor subfamily 1 group I member 2 (Homo sapiens, UniProt O75469); assay: Activity at PXR in human hepatocytes assessed as induction of CYP3A4 activity at 1 uM relative rifampicin; type: cell-based, Hepatocyte
T2 sequence (O75469 whole entry): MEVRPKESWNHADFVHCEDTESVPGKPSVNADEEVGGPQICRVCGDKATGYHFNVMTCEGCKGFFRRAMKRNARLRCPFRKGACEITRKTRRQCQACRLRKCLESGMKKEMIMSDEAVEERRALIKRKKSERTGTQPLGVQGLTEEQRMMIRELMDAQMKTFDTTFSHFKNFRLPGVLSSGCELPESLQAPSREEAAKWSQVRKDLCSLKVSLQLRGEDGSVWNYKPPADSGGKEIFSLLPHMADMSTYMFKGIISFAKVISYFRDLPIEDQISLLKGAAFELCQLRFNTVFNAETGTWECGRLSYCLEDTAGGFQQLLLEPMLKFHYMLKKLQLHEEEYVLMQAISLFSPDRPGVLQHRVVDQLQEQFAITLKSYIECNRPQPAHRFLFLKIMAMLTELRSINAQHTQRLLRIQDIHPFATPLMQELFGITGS

Homo sapiens = organism: Homo sapiens; assay: Selectivity for human cloned ORL1 receptor over human mu opioid receptor
Mu-type opioid receptor [4] = molecular target: T3, Mu-type opioid receptor (Homo sapiens, UniProt P35372); assay: Displacement of [3H]diprenorphine from human mu opioid receptor expressed in CHO cells; type: cell-based
Cavia porcellus [5] = assay: Antitussive activity in po dosed guinea pig GPPV model assessed as reduction of capsaicin-induced coughing after 2 hrs administered 15 mins before capsaicin challenge; type: functional
Nociceptin receptor [6] = molecular target: T1, Nociceptin receptor; assay: Agonist activity at human cloned ORL1 receptor assessed as stimulation of GTPgammaS binding at 10 uM; type: functional
Mu-type opioid receptor [7] = molecular target: T3, Mu-type opioid receptor; assay: Agonist activity at human mu opioid assessed as stimulation of GTPgammaS binding; type: functional
Nociceptin receptor [8] = molecular target: T1, Nociceptin receptor; assay: Agonist activity at human cloned ORL1 receptor assessed as stimulation of GTPgammaS binding; type: functional
Mu-type opioid receptor [9] = molecular target: T3, Mu-type opioid receptor; assay: Agonist activity at human mu opioid receptor assessed as stimulation of GTPgammaS binding at 10 uM; type: functional

T1 sequence (P41146 whole entry): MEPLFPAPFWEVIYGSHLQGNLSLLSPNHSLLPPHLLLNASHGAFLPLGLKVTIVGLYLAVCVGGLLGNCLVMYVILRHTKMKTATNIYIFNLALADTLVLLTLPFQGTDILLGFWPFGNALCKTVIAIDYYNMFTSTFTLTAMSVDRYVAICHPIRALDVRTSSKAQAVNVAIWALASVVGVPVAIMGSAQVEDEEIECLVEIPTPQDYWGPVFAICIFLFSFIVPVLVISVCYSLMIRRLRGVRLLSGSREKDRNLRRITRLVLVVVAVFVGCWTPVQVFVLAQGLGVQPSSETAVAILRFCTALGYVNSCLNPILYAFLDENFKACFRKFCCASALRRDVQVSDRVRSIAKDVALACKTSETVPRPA
T3 sequence (P35372 whole entry): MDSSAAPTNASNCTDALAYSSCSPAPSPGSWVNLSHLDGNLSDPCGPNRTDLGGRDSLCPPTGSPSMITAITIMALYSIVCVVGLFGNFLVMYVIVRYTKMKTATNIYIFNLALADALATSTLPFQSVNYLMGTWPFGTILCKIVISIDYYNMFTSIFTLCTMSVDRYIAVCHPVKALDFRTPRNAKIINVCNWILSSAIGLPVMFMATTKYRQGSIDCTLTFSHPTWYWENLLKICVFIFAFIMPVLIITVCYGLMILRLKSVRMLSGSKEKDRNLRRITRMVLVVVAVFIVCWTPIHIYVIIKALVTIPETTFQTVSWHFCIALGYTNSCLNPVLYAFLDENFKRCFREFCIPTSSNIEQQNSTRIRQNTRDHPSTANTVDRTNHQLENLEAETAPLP

N[C@]1(c2ccc(F)cn2)C[C@H]2CC[C@@H](C1)N2C(c1ccccc1Cl)c1ccccc1Cl
Activity (Cavia porcellus [1]): inactive | Ki (Nociceptin receptor [2]): 7 nM | Ratio [3]: 0.23 | fold change (FC) (Homo sapiens): 32 | Ki (Mu-type opioid receptor [4]): 209 nM

NC(=O)[C@]1(c2ccc(Br)nc2)C[C@H]2CC[C@@H](C1)N2C(c1ccccc1Cl)c1ccccc1Cl
Ki (Nociceptin receptor [2]): 13 nM | Ki (Mu-type opioid receptor [4]): 46 nM

COc1ccc2c3c1O[C@H]1[C@@H](O)C=C[C@H]4[C@@H](C2)N(C)CC[C@@]341 [CODEINE]
ED50 (Cavia porcellus [5]): 6.7 mg/kg

COC(=O)N[C@]1(c2ccccn2)C[C@H]2CC[C@@H](C1)N2C(c1ccccc1Cl)c1ccccc1Cl
Activity (Nociceptin receptor [6]): 92% | Ki (Nociceptin receptor [2]): 10 nM | EC50 (Mu-type opioid receptor [7]): 3780 nM | EC50 (Nociceptin receptor [8]): 87 nM | Ratio [3]: 0.98 | fold change (FC) (Homo sapiens): 74 | Activity (Mu-type opioid receptor [9]): 52% | Ki (Mu-type opioid receptor [4]): 741 nM

N[C@]1(c2ccccn2)C[C@H]2CC[C@@H](C1)N2C(c1ccccc1Cl)c1ccccc1Cl
Activity (Cavia porcellus [1]): inactive | Ki (Nociceptin receptor [2]): 10 nM | Ratio [3]: 0.47 | fold change (FC) (Homo sapiens): 32 | Ki (Mu-type opioid receptor [4]): 343 nM

Cc1ccc([C@@]2(C(N)=O)C[C@H]3CC[C@@H](C2)N3C(c2ccccc2Cl)c2ccccc2Cl)nc1
Ki (Nociceptin receptor [2]): 6 nM | Ratio [3]: 0.4 | Ki (Mu-type opioid receptor [4]): 26 nM

NC(=O)[C@@]1(Cc2ccc(F)cc2)C[C@H]2CC[C@@H](C1)N2C(c1ccccc1Cl)c1ccccc1Cl
Activity (Nociceptin receptor [6]): 108% | Ki (Nociceptin receptor [2]): 3 nM | EC50 (Mu-type opioid receptor [7]): 540 nM | EC50 (Nociceptin receptor [8]): 11 nM | Ratio [3]: 0.48 | Activity (Mu-type opioid receptor [9]): 107% | Ki (Mu-type opioid receptor [4]): 85 nM

N[C@]1(Cc2ccc(Cl)cc2)C[C@H]2CC[C@@H](C1)N2C(c1ccccc1Cl)c1ccccc1Cl
Ki (Nociceptin receptor [2]): 36 nM | Ki (Mu-type opioid receptor [4]): 447 nM

NC(=O)[C@]1(c2cc(F)cc(F)n2)C[C@H]2CC[C@@H](C1)N2C(c1ccccc1Cl)c1ccccc1Cl
Ki (Nociceptin receptor [2]): 15 nM | Ratio [3]: 0.55 | Ki (Mu-type opioid receptor [4]): 468 nM

COc1ccc([C@@]2(C(N)=O)C[C@H]3CC[C@@H](C2)N3C(c2ccccc2Cl)c2ccccc2Cl)nc1
Ki (Nociceptin receptor [2]): 22 nM | Ratio [3]: 0.19 | Ki (Mu-type opioid receptor [4]): 133 nM

NC(=O)[C@]1(c2cc(F)c(F)cn2)C[C@H]2CC[C@@H](C1)N2C(c1ccccc1Cl)c1ccccc1Cl
Ki (Nociceptin receptor [2]): 9 nM | Ratio [3]: 0.18 | Ki (Mu-type opioid receptor [4]): 74 nM

NC(=O)[C@]1(c2cccnc2)C[C@H]2CC[C@@H](C1)N2C(c1ccccc1Cl)c1ccccc1Cl
Ki (Nociceptin receptor [2]): 3 nM | Ratio [3]: 0.4 | Ki (Mu-type opioid receptor [4]): 71 nM

NC(=O)[C@]1(c2ccc(Br)cn2)C[C@H]2CC[C@@H](C1)N2C(c1ccccc1Cl)c1ccccc1Cl
Activity (Nociceptin receptor [6]): 75% | Ki (Nociceptin receptor [2]): 29 nM | EC50 (Mu-type opioid receptor [7]): 421 nM | EC50 (Nociceptin receptor [8]): 63 nM | Ratio [3]: 0.09 | fold change (FC) (Homo sapiens): 4 | Activity (Mu-type opioid receptor [9]): 89% | Ki (Mu-type opioid receptor [4]): 153 nM

N#Cc1ccc([C@@]2(C(N)=O)C[C@H]3CC[C@@H](C2)N3C(c2ccccc2Cl)c2ccccc2Cl)nc1
Ki (Nociceptin receptor [2]): 75 nM | fold change (FC) (Homo sapiens): 4 | Ki (Mu-type opioid receptor [4]): 481 nM

CC(=O)NC[C@]1(c2ccccc2)C[C@H]2CC[C@@H](C1)N2C(c1ccccc1Cl)c1ccccc1Cl
Ki (Nociceptin receptor [2]): 20 nM | EC50 (Nociceptin receptor [8]): 269 nM | ED50 (Cavia porcellus [5]): 0.19 mg/kg | Ratio [3]: 0.94

NC(=O)c1ccc([C@@]2(C(N)=O)C[C@H]3CC[C@@H](C2)N3C(c2ccccc2Cl)c2ccccc2Cl)nc1
Ki (Nociceptin receptor [2]): 401 nM | fold change (FC) (Homo sapiens): 4 | Ki (Mu-type opioid receptor [4]): 1320 nM

CN(C)[C@]1(c2ccccn2)C[C@H]2CC[C@@H](C1)N2C(c1ccccc1Cl)c1ccccc1Cl
Ki (Nociceptin receptor [2]): 42 nM | Ki (Mu-type opioid receptor [4]): 840 nM

NC(=O)[C@]1(c2cc(C(=O)O)c(F)cn2)C[C@H]2CC[C@@H](C1)N2C(c1ccccc1Cl)c1ccccc1Cl
Ki (Nociceptin receptor [2]): > 1000 nM

NC(=O)[C@]1(c2ccc(N)cn2)C[C@H]2CC[C@@H](C1)N2C(c1ccccc1Cl)c1ccccc1Cl
Ki (Nociceptin receptor [2]): 31 nM | fold change (FC) (Homo sapiens): 4 | Ki (Mu-type opioid receptor [4]): 205 nM
